The record followed here is article PMC8805605, “Discovery of Dimeric Arylsulfonamides as Potent ADAM8 Inhibitors” (ACS Medicinal Chemistry Letters, 2021).

The subject of one assay is MDA-MB-231 cells. The assay is described as follows: Matrigel invasion assay. The class given is cell-based. As to conditions: MDA-MB-231 cells pretreated with inhibitors for 24 h; control 69.07 ± 5.26%. How it is done:
Figure 5 Effects of compounds 1–3 and JG26 on cancer cell invasion. MDA-MB-231 cells were pretreated with inhibitors for 24 h prior to the assay. Boxplot of invaded cells in %. Results are obtained from three independent experiments with counting of five randomly chosen viewing fields. One-way ANOVA was performed to determine statistical significance with * p < 0.05 and *** p < 0.001. […]
Thincerts of […] pore size, translucent (Greiner BioOne) were transferred into 24-well plates. Each insert was loaded with 75 µL Matrigel (BD Biosciences), 1:1 diluted with serum-free medium DMEM.
After 1 hour, thincerts were turned upside down and 25000 MDA-MB-231 cells, pretreated with vehicle (DMSO) or 20 µM inhibitors (JG26 and compounds 1-3 in DMSO) for 24 hours in DMEM/0.5 % FCS were seeded on the lower side and incubated for 3-4 hours so that cell can adhere to the membrane. To induce cell invasion, DMEM/20% FCS was applied to the upper chamber in order to […]
form a concentration gradient. After 18 hours, cells were fixed with 3.7 % paraformaldehyde and stained with 4’,6-Diamidin-2-phenylindol (DAPI) to detect cell nuclei. Quantification of cell invasion was performed using a confocal microscope by stacked imaging. Cell nuclei present in the upper and the lower chamber were counted in 5 randomly chosen viewing fields and the amount of invasion was calculated in percent as the ratio between invaded cells/non-invaded cells x 100. Experiments were repeated 3 times, counting 5 random viewing fields per well, respectively.
Protein extraction and Western Blot analysis
After 48 h, total protein extraction was performed by detaching the cells with a cell scraper. Cells were washed with PBS, resuspended in 50 μL RIPA (50 mM HEPES pH 7.4; 150 mM NaCl; 1% (v/v) NP-40; 0.5% (w/v) Natriumdeoxycholate; 0.1% (w/v) SDS; 10 mM Phenantrolin; 10 mM EDTA; PierceTM Protease Inhibitor Mini Tablets, EDTA-free, Thermo Scientific; PierceTM Phosphatase Inhibitor Mini Tablets, Thermo Scientific) and incubated for 30 min on ice. […]
2% (w/v) SDS; 10% (w/v) Glycerol; 5% (v/v) ß-Mercaptoethanol; 0.01% (w/v) Bromphenol-Blue) for 5 min. The proteins were separated by 10% SDS-PAGE and subsequently transferred on a nitrocellulose membrane (GE Healthcare). The membrane was then blocked with 5% (w/v) milk powder (MP) in TBST (50 mM Tris, pH 7.5; 150 mM NaCl; 0.1% (w/v) Tween-20) for 1 h and probed with the following primary antibodies: anti-beta Tubulin (NB600-936, Novus Biological, 1:2000), anti- […]
Cell Signaling, 1:2000) and anti-pAkt (4060, Cell Signaling, 1:2000) at 4°C overnight. After washing the 3x with TBST, the membrane was incubated with horseradish peroxidase-conjugated secondary antibodies for 1 h (abcam, 1:5000) followed by a repeated washing step. […]

A further assay concerns the target T1, human recombinant ADAM8 (Homo sapiens, UniProt P78325).
T1 construct: kind gift of Franka Scharfenberg, University of Kiel
T1 sequence (P78325 17-824): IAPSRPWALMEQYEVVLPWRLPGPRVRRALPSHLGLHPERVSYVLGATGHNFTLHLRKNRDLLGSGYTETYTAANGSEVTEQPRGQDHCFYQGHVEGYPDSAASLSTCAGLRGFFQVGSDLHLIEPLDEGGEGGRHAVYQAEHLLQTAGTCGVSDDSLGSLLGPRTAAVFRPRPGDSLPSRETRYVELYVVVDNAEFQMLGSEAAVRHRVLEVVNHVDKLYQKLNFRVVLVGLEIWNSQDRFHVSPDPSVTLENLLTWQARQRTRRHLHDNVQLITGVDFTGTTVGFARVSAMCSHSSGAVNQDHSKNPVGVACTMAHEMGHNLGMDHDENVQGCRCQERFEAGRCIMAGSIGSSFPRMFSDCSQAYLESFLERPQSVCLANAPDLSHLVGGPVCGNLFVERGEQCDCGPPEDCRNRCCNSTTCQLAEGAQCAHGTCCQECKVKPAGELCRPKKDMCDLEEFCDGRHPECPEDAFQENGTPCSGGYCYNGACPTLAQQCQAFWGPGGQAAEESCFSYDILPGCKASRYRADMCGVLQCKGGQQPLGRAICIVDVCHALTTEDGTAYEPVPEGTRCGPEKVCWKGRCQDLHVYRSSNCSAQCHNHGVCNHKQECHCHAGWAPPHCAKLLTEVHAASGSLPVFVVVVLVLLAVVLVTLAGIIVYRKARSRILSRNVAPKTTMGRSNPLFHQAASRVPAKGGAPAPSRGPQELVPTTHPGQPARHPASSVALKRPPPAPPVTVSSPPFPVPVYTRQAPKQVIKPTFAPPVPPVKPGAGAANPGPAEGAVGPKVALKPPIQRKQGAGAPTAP
The assay is described as follows: ADAM8 fluorometric inhibition assay. The note with it: for IC50: human recombinant enzyme, fluorometric assay, mean of three independent experiments in duplicate, read-out: In vitro inhibitory activity IC50 on ADAM8. The class given is biochemical. On the procedure: The newly synthesized bivalent derivatives 1–3 were then tested in vitro on human recombinant ADAM8 in comparison with JG26 by a fluorometric assay. The inhibitory activity against a panel of MMPs and ADAM10/17 was determined as well to assess their selectivity profile.
(RFU). Percent of inhibition was calculated from control reactions without the inhibitor. IC50 was determined using the formula: v i/v o = 1/(1 + [I]/ IC50), where v i is the initial velocity of substrate cleavage in the presence of the inhibitor at concentration [I] and v o is the initial velocity in the absence of the inhibitor. Results were analyzed using SoftMax Pro software (version 5.4.3, Molecular Devices, Sunnyvale, CA) and Prism Software version 5.0 (GraphPad Software, Inc., La Jolla, CA, USA).
ADAM8 and ADAM17 inhibition assays
Recombinant ADAM8 and ADAM17 (kind gift of Franka Scharfenberg, University of Kiel) were diluted in assay buffer (25 mM Tris HCl, pH 8.0. 6x10-4 % Brij, 10 mM CaCl2, 10 mM ZnCl2) to a working concentration of 250 ng and incubated with inhibitors for 45 min in a total volume of 50 µL.
The fluorescent substrate PepDAB1310 was added in a concentration of 10 µM (in a volume of 50 µL). […]

Regarding `O=C(CCCNC(=O)c1cccc(C(=O)NCCCC(=O)NCCC[C@@H](NS(=O)(=O)c2ccc(OCc3cc(Br)cc(Br)c3)cc2)C(=O)NO)c1)NCCC[C@@H](NS(=O)(=O)c1ccc(OCc2cc(Br)cc(Br)c2)cc1)C(=O)NO` [Compound 1], the Invaded cells in the assay with MDA-MB-231 cells came to 57.25 ± 7.24%. Further, at human recombinant ADAM8, the IC50 amounted to 41 nM. The “Selectivity for ADAM8 over ADAM10” value on human recombinant ADAM8 (ratio of IC50 values ADAM10/ADAM8) was 740 fold.
Consider `O=C(NCCC[C@@H](NS(=O)(=O)c1ccc(OCc2cc(Br)cc(Br)c2)cc1)C(=O)NO)c1cccc(C(=O)NCCC[C@@H](NS(=O)(=O)c2ccc(OCc3cc(Br)cc(Br)c3)cc2)C(=O)NO)c1` [Compound 2], for which the Invaded cells in the assay on MDA-MB-231 cells was 50.8 ± 11.4%. Also, on human recombinant ADAM8, the IC50 worked out at 73 nM.
Take `O=C(NCCC[C@@H](NS(=O)(=O)c1ccc(OCc2cc(Br)cc(Br)c2)cc1)C(=O)NO)NCCC[C@@H](NS(=O)(=O)c1ccc(OCc2cc(Br)cc(Br)c2)cc1)C(=O)NO` [Compound 3]: the Invaded cells in the assay with MDA-MB-231 cells is 52.9 ± 9.14%. Besides, the IC50 at human recombinant ADAM8 amounted to 567 nM. For the same compound, the “Times less active than compound 1 on ADAM8” value on human recombinant ADAM8 (ratio of ADAM8 IC50 values) came to 14 times.
For the compound `NC(=O)NCCC[C@@H](NS(=O)(=O)c1ccc(OCc2cc(Br)cc(Br)c2)cc1)C(=O)NO` [JG26, reference compound], in the assay with MDA-MB-231 cells, the Invaded cells is recorded as 59.87 ± 12.27%. On human recombinant ADAM8, the IC50 was 12 nM.
